Assay results as given in patent US12441763B2, “Hangtaimycin derivatives and their preparation methods and application” (WUHAN UNIVERSITY, priority 2022, dated 2025).

What was measured:
[1] = Antioxidant activity, DPPH free radical scavenging; type: biochemical; settings: 1~50 μg/mL, 0.1 mM DPPH, absorbance at 517 nm
Procedure: In this experiment, a 0.1 mM DPPH solution was prepared with ethanol, and each sample solution/dispersion was separately mixed with the DPPH solution in order to dilute it into a reaction product with a concentration gradient of 1˜50 μg/mL to evaluate the concentration-dependent antioxidant potential. The reaction product was measured for its absorbance (AS) at 517 nm using an ultraviolet-visible spectrophotometer, and its antioxidant activity was measured using DPPH removal as an indicator. The percentage of DPPH free radical scavenging is calculated by the following formula: […]
AS is the absorbance of the sample and A0 is the absorbance of the control (only DPPH solution).

[2] = test system: cocaine reward memory reconsolidation; test: Drug reward memory reconsolidation, cocaine; type: in vivo, SD rats; settings: 3 mg/kg i.p. after exposure to drug-paired box; group IV vs group III; 7th day after reward memory activation; P<0.05
Procedure: (§1) Drug reward memory reconsolidation: Morphine, an opioid representative, and cocaine, a euphoric representative, were used to establish model addiction. On the first day, baseline was assessed by placing the rats in the center compartment of the CPP apparatus and allowing ad libitum access to all compartments for 15 minutes. And then, male SD rats were divided into the saline+morphine group, the HTMB (3 mg/kg)+morphine group, the saline+cocaine group, and the HTMB (3 mg/kg, i.p.)+cocaine group. The rats were exposed to CPP training from day 2 to 9. On the 10th day, the channel between the three boxes was opened, and the rats were allowed to move freely in the three boxes for 15 minutes for the CPP test. On the 11th day, the CPP expressing rats screened for CPP formation were divided into four groups: the group I (morphine+saline), the group II (morphine+3 mg/kg HTMB), the group III (cocaine+saline), and the group IV (cocaine+3 mg/kg HTMB). After exposure to drug-paired box for 10 minutes, groups I and III were injected with saline (1 ml/kg, i.p.), and the groups II and IV were injected with HTMB (3 mg/kg, i.p.). 24 hours after injection, we defined this as 1 day of activation of the reward memory. The CPP scores were measured on the 7th day after reward memory activation.

[3] = test system: breast cancer; test: Antitumor activity, MTT cell viability, breast cancer; type: cell-based; settings: 50 μg/mL, 24 hours
Procedure: (§2) In a 96-well microplate, 100 μL of culture medium was put in each well and inoculate four cell strains with a fusion degree of 80% at a density of 8×10^3 cells. Cells were grown at 37° C., CO2 (5%) and air (95%). Each 96-well plate was placed with a concentration gradient of 0˜100 μg/mL of test compounds HTM, HTMA, HTMB, and HTMP. After 24 hours of incubation, the medium was removed, and 0.5 mg/mL MTT solution was added to each medium with cells and continue to incubate the cells for 4 hours at 37° C. Then 100 μL of DMSO was added to dissolve formazan crystals. Finally, absorbance was measured at 570 nm using a microplate reader (Bioteck EON, USA). The viability of the cells was calculated as the percentage of cell viability compared to vehicle control-treated cells, which were arbitrarily assigned as 100% viability. Each independent experiment was repeated five times. (*P<0.05, **P<0.01, ***P<0.001)

[4] = test system: bladder cancer; test: Antitumor activity, MTT cell viability, bladder cancer; type: cell-based; settings: 50 μg/mL, 24 hours, P<0.01
Procedure: as §2

[5] = test system: morphine reward memory reconsolidation; test: Drug reward memory reconsolidation, morphine; type: in vivo, SD rats; settings: 3 mg/kg i.p. after exposure to drug-paired box; group II vs group I; 7th day after reward memory activation; P<0.05
Procedure: as §1

[6] = test system: renal cancer; test: Antitumor activity, MTT cell viability, renal cancer; type: cell-based; settings: 24 hours, P<0.01
Procedure: as §2

[7] = test system: liver cancer; test: Antitumor activity, MTT cell viability, liver cancer; type: cell-based; settings: 50 μg/mL, 24 hours, P<0.01
Procedure: as §2

[8] = test system: carrageenan-induced paw inflammation; test: Anti-inflammatory effect in inflammatory model induced by carrageenan (paw); type: in vivo, Kunming mice; settings: 10 mg/mL, 10 μL subcutaneous into right hind paw; 4 hours after carrageenan injection; vs carrageenan+solvent group; P<0.05
Procedure: Male Kunming mice weighing 18˜22 g were adaptively reared for 1 day, and then randomly divided into […] (5˜6 mice per group): the saline+solvent group, the saline+HTM group, the saline+HTMP group, the saline+HTMA group, the saline+HTMB group, the saline+rapamycin (250 nM) group, the carrageenan+solvent group, the carrageenan+HTM group, the carrageenan+HTMP group, the carrageenan+HTMA group, the carrageenan+HTMB group, and the carrageenan+rapamycin (250 nM) group. Where doses used for HTM, HTMP, HTMA, and HTMB were set at 1, 3, and 10 mg/mL, and their solutions all contained 5% DMSO. Experiments were designed based on previous studies (Zhang et al., 2018). Carrageenan was used to induce paw inflammation, and the experimental procedure was as follows:
(1) The thickness of the right hind foot of mice was measured with a vernier caliper before the experiment, and the measurement site was marked.
(2) The experimental group was then subcutaneously injected into the right hind paw with 10 μL of different concentrations of compound solutions. The control group was injected with 10 μL saline into the right hind paw.
(3) After administration, the carrageenan group was injected subcutaneously with 30 μL of 1% carrageenan solution into the right hind paw, and the other groups were injected with an equal volume of saline. The thickness of the right hind foot of each mouse was measured at the same site every 1 hour for the following 4 hours to observe the effect of the compounds on the change in foot thickness.

[9] = test system: HepG2 cells; test: Cellular assay for hepatoprotective activity, CCl4-induced liver injury cell model; type: cell-based; settings: compared with the CCl4 group; HepG2 cell homogenates
Procedure: HepG2 cells were seeded into 24-well plates and kept at 37° C. in 5% CO2 in order to achieve 80% fusion. To evaluate the effects of HTMA, HTMB, and HTMP on aspartate aminotransferase (AST) and alanine aminotransferase (ALT) activity, and compare the results with those of Silymarin (positive control) (FIG. 26), a cellular assay for hepatoprotective activity was carried out using a CCl4-induced liver injury cell model. The cells were treated with the compounds followed by ultrasound disruption and cell homogenization to prepare the cell homogenates for analysis.

Row | Compound | antioxidant capacity (DPPH free radical scavenging) [1] | CPP scores, cocaine reward memory reconsolidation [2] | survival rate of breast cancer ([3]; P<0.05) | survival rate of bladder cancer [4] | CPP scores, morphine reward memory reconsolidation [5] | survival rate of renal cancer ([6]; […]) | survival rate of breast cancer ([3]; P<0.01) | survival rate of liver cancer [7] | right hind foot thickness [8] | ALT levels [9] | AST levels [9] | survival rate of renal cancer ([6]; 50 μg/mL)
1 | C=C(NC(=O)/C=C\C=C\CCCC1=CC(=O)OC(C(O)NC(=O)C(C)=CC(C)NC(=O)/C=C\C=C\C)C1)C(=O)NC(C(=O)N1C(=O)[C@@H](Cc2c[nH]c3ccccc23)N(C)C(=O)/C1=C/C)C(C)OC (some centres unmarked) [HTM, Hangtaimycin] | have antioxidant capacity | inhibit | significantly inhibited | significantly inhibited | inhibit | significantly inhibited |  |  |  |  |  | 
2 | Deoxyhangtaimycin [HTMP] | have antioxidant capacity |  |  | significantly inhibited |  |  | significantly inhibited | significantly inhibited | reduced | significantly reduced | significantly reduced | significantly inhibited
